Data: patent US7968526B2, “Antisense oligonucleotides directed to ribonucleotide reductase R2 and uses thereof in the treatment of cancer” (Lorus Therapeutics Inc., priority 2003, dated 2011)

Tests used:
[1] = system: MDA-CDDP-S4 human in vivo-selected Cisplatin-resistant breast adenocarcinoma cells; test: MDA-CDDP-S4 Cisplatin-resistant breast adenocarcinoma, fat pad, SCID mice (2.3); design: species or system human cells in mice
Description: BxPC-3 is a gemcitabine resistant call line. […] Gemcitabine was administered intravenously every three days at a dose of 100 mg/kg. Antitumour activities were estimated by the inhibition of tumour volume, which was measured with caliper. Each point represents mean tumour volume calculated from 10 animals per experimental group. […] Hela S3 is a hydroxyurea resistant cell line. […] Hydroxyurea was administered intraperitoneally every day at a dose of 250 mg/kg for 10 days. Cisplatin was administered intravenously once a week for three weeks at a dose of 4 mg/kg. Antitumour activities were estimated by the inhibition of tumour volume, which was measured with caliper. Each point represents mean tumour volume calculated from 10 animals per experimental group. […] Cisplatin was administered intravenously once a week for three weeks at a dose of 4 mg/kg. Taxol was administered intravenously once a week for three weeks at a dose of 10 mg/kg. Antitumour activities were estimated by the inhibition of tumour volume, which was measured with caliper. Each point represents mean tumour volume calculated from 10 animals per experimental group. […] Taxol was administered i.p. once a week at a dose of 10 mg/kg. Antitumour activities were estimated by the inhibition of tumour volume (FIG. 12A), which was measured with calipers. Each point represents mean tumour volume calculated from 10 animals per experimental group. Animals were sacrificed and tumour weights taken at the end of the study (FIG. 12C). […] Cisplatin was administered intravenously once a week for four weeks at a dose of 4 mg/kg. Taxol was administered intravenously once a week for four weeks at a dose of 20 mg/kg. Antitumour activities were estimated by the inhibition of tumour volume, which was measured with caliper. Each point represents mean tumour volume calculated from 9-10 animals per experimental group. […] Cisplatin was administered intravenously once a week for four weeks at a dose of 4 mg/kg. Antitumour activities were estimated by the inhibition of tumour volume, which was measured with caliper. Each point represents mean tumour volume calculated from 10 animals per experimental group. At the end of the study the animals were sacrificed and tumours weighed. […] Taxol was administered i.p. once a week at a dose of 10 mg/kg. Anti-tumour activity was estimated by the inhibition of tumour volume, which was measured with caliper. Each point represents mean tumour volume calculated from 10 animals per experimental group. In addition animals were sacrificed and tumour weights taken at the end of the study. […] CPT-11 was administered i.p. for 5 days at a dose of 20 mg/kg/day. Antitumour activities were estimated by the inhibition of tumour volume, which was measured with caliper. Each point represents mean tumour volume calculated from 10 animals per experimental group. Tumour weights were measured after animals were sacrificed at the end of the treatment. These cells are not resistant to CPT-11 which was used as a positive control.

[2] = system: Human taxol-resistant promyelocytic leukaemia cells (HL-60); test: HL-60 taxol-resistant promyelocytic leukaemia tumour in SCID mice (2.7); type: in vivo, human cells in mice; conditions: SEQ ID NO:1 10 mg/kg i.v. every other day
Description: BxPC-3 is a gemcitabine resistant call line. […] Gemcitabine was administered intravenously every three days at a dose of 100 mg/kg. Antitumour activities were estimated by the inhibition of tumour volume, which was measured with caliper. Each point represents mean tumour volume calculated from 10 animals per experimental group. […] Hela S3 is a hydroxyurea resistant cell line. […] Hydroxyurea was administered intraperitoneally every day at a dose of 250 mg/kg for 10 days. Cisplatin was administered intravenously once a week for three weeks at a dose of 4 mg/kg. Antitumour activities were estimated by the inhibition of tumour volume, which was measured with caliper. Each point represents mean tumour volume calculated from 10 animals per experimental group. […] Cisplatin was administered intravenously once a week for three weeks at a dose of 4 mg/kg. Taxol was administered intravenously once a week for three weeks at a dose of 10 mg/kg. Antitumour activities were estimated by the inhibition of tumour volume, which was measured with caliper. Each point represents mean tumour volume calculated from 10 animals per experimental group. […] Taxol was administered i.p. once a week at a dose of 10 mg/kg. Antitumour activities were estimated by the inhibition of tumour volume (FIG. 12A), which was measured with calipers. Each point represents mean tumour volume calculated from 10 animals per experimental group. Animals were sacrificed and tumour weights taken at the end of the study (FIG. 12C). […] Cisplatin was administered intravenously once a week for four weeks at a dose of 4 mg/kg. Taxol was administered intravenously once a week for four weeks at a dose of 20 mg/kg. Antitumour activities were estimated by the inhibition of tumour volume, which was measured with caliper. Each point represents mean tumour volume calculated from 9-10 animals per experimental group. […] Cisplatin was administered intravenously once a week for four weeks at a dose of 4 mg/kg. Antitumour activities were estimated by the inhibition of tumour volume, which was measured with caliper. Each point represents mean tumour volume calculated from 10 animals per experimental group. At the end of the study the animals were sacrificed and tumours weighed. […] Taxol was administered i.p. once a week at a dose of 10 mg/kg. Anti-tumour activity was estimated by the inhibition of tumour volume, which was measured with caliper. Each point represents mean tumour volume calculated from 10 animals per experimental group. […] Antitumour activities were estimated by the inhibition of tumour volume, which was measured with caliper. Each point represents mean tumour volume calculated from 10 animals per experimental group. Tumour weights were measured after animals were sacrificed at the end of the treatment. […]

[3] = system: NCI-H460 human lung cancer cells; test: NCI-H460 lung tumour growth in CD-1 nude mice (3.5); type: in vivo, human cells in mice
Description: (§1) Treatments lasted for 14 days thereafter. Antitumour activities were estimated by the inhibition of tumour volume, which was measured with a caliper on four different occasions over the treatment period. Each point represents mean tumour volume calculated from 5 animals per experimental group. […] Control animals (control) received saline alone for the same period. At the end of the treatments, the animals were sacrificed, tumours were excised and their weights were measured. Each bar represents mean tumour weight calculated from 6 animals per experimental group. […] Treatments lasted for 24 days thereafter. Antitumour activities were estimated by the inhibition of tumour volume, which was measured with a caliper at two-day intervals over the treatment period. Each point represents mean tumour volume calculated from 4 animals per experimental group. […] Treatments lasted for 24 days thereafter. Antitumour activities were estimated by the inhibition of tumour volume, which was measured with a caliper at two-day intervals over the treatment period. Each point represents mean tumour volume calculated from 4 animals per experimental group. […] Each point represents mean tumour volume calculated from 5 animals per experimental group. […] Antitumour activities were estimated by the inhibition of tumour volume, which was measured with a caliper on four different occasions over 16-day period. Each point represents mean tumour volume calculated from 5 animals per experimental group. […] Antitumour activities were estimated by the inhibition of tumour volume, which was measured with a caliper at two-day intervals over the treatment period. Each point represents mean tumour volume calculated from 5 animals per experimental group. […] Antitumour activities were estimated by the inhibition of tumour volume, which was measured with a caliper at various time intervals over the span of 30 days. Each point represents mean tumour volume calculated from 6 animals per experimental group. […] Antitumour activities were estimated by the inhibition of tumour volume, which was measured with a caliper. […]

[4] = system: SU.86.86 human pancreatic cancer cells; test: SU.86.86 pancreatic tumour growth in CD-1 nude mice (3.6); type: in vivo, human cells in mice
Description: as §1

[5] = system: CB7 Friend retrovirus-induced mouse Erythroleukaemia cells; test: Survival of SCID mice bearing mouse erythroleukaemia (CB7); type: in vivo; conditions: 10 mg/kg i.v. every second day, stopped at day 71, untreated all died within 36 days

“5′-GGCTAAATCGCTCCACCAAG-3′ (all phosphorothioate, sugars by position and methylation of C not given here) [SEQ ID NO: 1, fully phosphorothioated antisense oligonucleotide that hybridizes to the coding region of R2 mRNA]” was tested, and the “Tumour weight as % of saline control” value ([1]; MDA-CDDP-S4 (breast), Cisplatin resistant, SCID, SEQ ID NO:1 10 mg/kg i.v. every other day 9 times, Taxol 10 mg/kg, Cisplatin 4 mg/kg i.v. weekly x3) was 32%, the “Antitumour effect (FIG. 11)” value ([1]; MDA-CDDP-S4 Cisplatin-resistant, SCID mice, SEQ ID NO:1 10 mg/kg i.v. every other day, Cisplatin 4 mg/kg, Taxol 10 mg/kg i.v. weekly) was “significant reduction of tumour weight compared to saline control” and the “Tumour weight as % of saline control” value ([2]; HL-60 (leukemia), Taxol resistant, SCID, Taxol 10 mg/kg i.p. weekly) was 38%. For the same substance, the “Antitumour effect (FIG. 15)” value ([2]; HL-60 taxol-resistant, SCID mice, taxol 10 mg/kg i.p. weekly) was “significant reduction of tumour weight compared to saline control”, the “Inhibition of tumour weight” value ([3]; Human Lung Carcinoma) was ~70% and the “Inhibition of tumour size” value ([3]; Human Lung Carcinoma in CD-1 Nude mice, Days 14 to 19 after tumour implantation) was “Inhibition of tumour size by approximately 85%”. For the same substance, the “Inhibitory effect on tumour growth (tumour volume, FIG. 18D)” value ([3]; NCI-H460, CD-1 nude mice, 10 mg/kg i.v. every other day, 14 days) was “strong inhibitory effects on the growth of human lung carcinoma”, the “Inhibition of tumour weight” value ([4]; Human Pancreatic Adenocarcinoma) was ~65% and the “Inhibition of tumour growth” value ([4]; Human Pancreatic Adenocarcinoma, up to 39 days after tumour implantation) was “Complete inhibition of tumour growth up to 39”. For the same substance, the “Inhibitory effect on tumour growth (tumour volume, FIG. 19)” value ([4]; SU.86.86, CD-1 nude mice, 10 mg/kg i.v. every other day, 34 days, two batches) was “strong inhibitory effects on the growth of human pancreatic carcinoma” and the Survival of mice [5] was “survived beyond day 71 except one mouse, which died at day 22”.
